The test system of test [1] is chromatophore/fungal cell. Type of test: cell-based.
Test [2] has as its system chromatophores.
In test [3] the test system is Betta chromatophores. Type of test: cell-based.
Test [4] deals with iridophores. Type of test: cell-based.
Test [5] relates to Hemichromis bimaculatus chromatophores. Type of test: cell-based.
Test [6] deals with xanthophores. Type of test: cell-based.
Test [7] deals with Betta chromatophores. The format is cell-based, Betta splendens.

Regarding `C[C@@H]1[C@H](O)[C@@H](C)/C=C/C=C/C=C/C=C/C=C/C=C/C=C/[C@H](O[C@@H]2O[C@H](C)[C@@H](O)[C@H](N)[C@@H]2O)C[C@@H]2O[C@](O)(C[C@@H](O)C[C@@H](O)[C@H](O)CC[C@@H](O)C[C@@H](O)CC(=O)O[C@H]1C)C[C@H](O)[C@H]2C(=O)O` [Amphotericin B], the “2-Cell Cytosensor (second cell type included)” value in test [1] is listed as “Normal”. Besides, in test [2], the “Response time Hr.” value is recorded as “XX (key: X=1-6 hr; XX=6-24 hr)” and the “Threshold concentration PPM” value is “X (key: X=1 to 100 PPM; XX=100 to 1000 PPM)”.
Consider `NC[C@H](O)c1ccc(O)c(O)c1` [Norepinephrine], for which the “appearance of Betta chromatophores after exposure” value in test [3] is listed as “aggregation of chromatophore pigment is apparent”. Also, the “Chromatophore response Iridophores” value in test [4] is “Hue changes (FS)”. Moreover, in test [5], the “change of appearance of Hemichromis bimaculatus chromatophores” value is reported as “change the appearance”. For the same molecule, the “Chromatophore response Xanthophores” value in test [6] was “Disp”. Moreover, the “response time of the cytosensor” value in test [7] is on record as “less than 1 minute”.

The record behind these values is patent publication US20050074834A1 (priority 2001, published 2005).
